From patent US20150141375A1 (priority 2009, published 2015)
Read-outs that look alike come from different tables or passages of the source.

How the values were obtained:
Adenovirus = details: literature values; cited from earlier work
HSV-1 = test: microbe, parasite or virus in culture; format: cell-based
HSV-2, strain MS = test: Mortality of BALB/c mice infected intranasally with HSV-2, strain MS; format: in vivo
Description: Animals: BALB/c, female mice, 3-4 weeks of age.
Treatments were administered to mice for 7 consecutive days beginning 72 hr post viral inoculation by oral gavage using a 0.2 ml volume. CMX001 was administered once daily and ACV was given twice daily at approximately 12 hr intervals.
Mortality rates analyzed by Fisher's exact test; Mean day of death (MDD) by Mann-Whitney U rank sum.

HSV-2 = test: In vitro efficacy against HSV-2 strains in HFF (CPE, plaque reduction); format: cell-based
Description: In vitro screening by CPE assay in human foreskin fibroblast (HFF) cells with confirmation using plaque reduction assays in HFF.

SVG cells = test: SVG cell viability / cell number (MTS, alamar blue, hematoxylin); format: cell-based, human; details: Ara-C 5 μg/ml
Description: (§1) Quantification of cell viability using the MTS [3-(4,5-dimethylthiazol-2-yl)-5-(3-carboxymethoxyphenyl)-2-(4-sulfophenyl)-2H-tetrazolium] assay is based on bioactivity of mitochondrial dehydrogenase in living cells, which converts colorless tetrazolium salt to a colored formazan. MTS assays were performed according to manufacturer's instructions (Promega, Madison Wis.). Briefly, culture medium was removed from cells and 50 μL of PBS was added into each well of a 96 well plate. Ten μL of MTS reagent were added to wells of cells, and to a well without cells to determine background. Mixtures were incubated at 37° C. for 2 hours and the absorbance was measured at 490 nm. Trypan blue staining was performed on identical cultures to correlate MTS values with cell viability. The final values indicated are the result from 3 replicates. The value for the non-treated control was set to 100% and all other values are represented as a percentage of the control. Alamar blue (AB) assay.
(§2) Quantification of cell viability using the alamar blue (AB) assay was performed according to the manufacturer's instructions (Invitrogen, Gaithersburg, Md.). Briefly, 10 μL of AB reagent was added to each well of a 96 well dish containing cells or without cells to determine background. Mixtures were incubated at 37° C. for 6 hours and the absorbance measured at 570 nm using 600 nm as a reference wavelength. The value for the non-treated control was set to 100% and all other values are represented as a percentage of the control.
(§3) Because cell density in cultures processed for in situ DNA hybridization could not be measured by MTS or AB assays, cell density was approximated in cell cultures processed by quantifying hematoxylin staining intensity. Coverslips containing cells were prepared for in situ DNA hybridization and co-stained with hematoxylin. Subsequently, each coverslip was scanned and the hematoxylin intensities quantified using ImageJ. To determine the total cell number per coverslip, images were acquired at 10 random positions at 100× magnification. Cells were counted throughout each image and the average cell number per slide was generated by averaging counts from the 10 images for each experimental group. Exactly 900 images at 100× magnification cover the surface of an 18 mm×18 mm coverslip.

[1] = as above; format: cell-based, human; details: human, SVG cells; Ara-C 20 μg/ml; read-out: decrease of cell viability (MTS)
Description: as §1, §2, §3

Mad-4 JCV = test: JCV (Mad-4) initial infection of SVG cells (in situ DNA hybridization, qPCR); details: for decrease in percentage of cells containing JCV DNA: day 7
[2] = Safety and pharmacokinetics of CMX001 in healthy volunteers; format: in vivo, human; details: blood, Human, analyte = label
Description: An initial study was conducted to evaluate the safety and pharmacokinetics of CMX001 in healthy volunteers. The study consisted of a single dose arm (SD) and a multiple dose arm (MD). In the single dose arm 7 cohorts of 6 subjects were treated (4 subjects received active drug and 2 placebo). Enrollment was staggered as 2 subjects (one active, one placebo) followed by 4 subjects (Groups A and B). The estimated single doses for the two highest doses treated for a […] subject were 40 mg (0.6 mg/kg cohort 6) and 70 mg (1 mg/kg cohort 7). In the multiple dose arm, cohort 6MD received 0.1 mg/kg on Day 0, 6 and 12; Cohort 7MD received 0.2 mg/kg on Day 0, 6 and 12. Levels of cidofovir, CMX001 and CMX064 (major metabolite) were measured in blood and urine of subjects during the course of the study. Gastrointestinal (GI) monitoring of the subjects included (a) monitoring for clinical signs of GI adverse events, (b) monitoring for clinical symptoms using a visual Analog Scale, (c) monitoring for appetite loss/anorexia, nausea, vomiting, diarrhea, constipation and intestinal gas/bloating, (d) laboratory tests for fecal occult blood; serum electrolytes, urine specific gravity, BUN/creatinine ratio; serum albumin, and lipids, and (e) diagnostic studies (the Wireless capsule endoscopy (PillCam®, Given Imaging)).

BK Virus = test: BK virus replication in RPTECs, viral DNA by qPCR after 5 days; format: cell-based; details: Betapolyomavirus hominis, RPTEC
Description: To test the ability of CMX001 to inhibit replication of BK virus, stocks of BK virus were prepared in HFF cells and dilutions of the virus stocks were used to infect primary human renal tubular epithelial cells (RPTECs). Drug dilutions were then added to the wells containing the infected cells and the plates were incubated for 5 days. Total DNA was prepared from the plates and viral DNA was quantified by qPCR.

HCMV (AD169) = test: HCMV real time array of viral transcripts; format: cell-based; details: CDV 50 μM, GCV 15 μM, CMX001 0.5 μM; ANOVA P<0.05
HCMV = HCMV viral DNA accumulation in HFF cells, real time PCR, 7 days; format: cell-based; details: GCV 10 μM
human PBMCs = test: Intracellular CDV-PP in human PBMCs; format: in vitro ADME
Description: CMX001 increases cellular exposure to the active antiviral agent, cidofovir-diphosphate (CDV-PP). […] CDV-PP in PBMCs incubated for 48 hours with CMX001 or cidofovir.

[3] = JC polyomavirus, read-out: reduction of JCV DNA containing cells, normalized to cell viability

Nc1nc2c(ncn2COCCO)c(=O)[nH]1 [Acyclovir, acyclovir]
IC50 (Adenovirus): > 100 µM
EC50 (HSV-1; Human alphaherpesvirus 1, ACV resistant strain B-2006): > 100 µM
EC50 (HSV-1; Human alphaherpesvirus 1, ACV resistant strain DM2.1): > 100 µM
EC50 (HSV-1; Human alphaherpesvirus 1, ACV resistant strain PAAr5): 13.6 ± 2.7 µM
EC50 (HSV-1; Human alphaherpesvirus 1, F (wild type), Table 9): 1.9 ± 0.47 µM
EC50 (HSV-1; Human alphaherpesvirus 1, SC16, ACV resistant strain SC16-S1): > 100 µM
EC50 (HSV-1; Human alphaherpesvirus 1, read-out: EC50 range, panel of wild-type and ACV-resistant isolates of HSV-1 and HSV-2): ≥ 2 µM
EC50 (HSV-1; Human alphaherpesvirus 1, strain F): 0.35 ± 0.2 µM
EC50 (HSV-1; Human alphaherpesvirus 1, strain HL-3): 3.8 ± 0.4 µM
MDD (HSV-2, strain MS; Acyclovir 3 mg/kg): 9.0 ± 1.6
Mortality Number (HSV-2, strain MS; Acyclovir 3 mg/kg): 15/15
Mortality Percent (HSV-2, strain MS; Acyclovir 3 mg/kg): 100%
MDD (HSV-2, strain MS; Acyclovir 10 mg/kg): 11.1 ± 2.4
Mortality Number (HSV-2, strain MS; Acyclovir 10 mg/kg): 11/15
Mortality Percent (HSV-2, strain MS; Acyclovir 10 mg/kg): 79%
MDD (HSV-2, strain MS; Acyclovir 30 mg/kg): 10.7 ± 2.0
Mortality Number (HSV-2, strain MS; Acyclovir 30 mg/kg): 6/15
Mortality Percent (HSV-2, strain MS; Acyclovir 30 mg/kg): 40%
EC50 (HSV-2; Human alphaherpesvirus 2, ACV resistant strain 11572): > 100 µM
EC50 (HSV-2; Human alphaherpesvirus 2, ACV resistant strain 11680): 79 ± 10 µM
EC50 (HSV-2; Human alphaherpesvirus 2, ACV resistant strain 12247): > 100 µM
EC50 (HSV-2; Human alphaherpesvirus 2, ACV resistant strain AG-3): > 100 µM
EC50 (HSV-2; Human alphaherpesvirus 2, G (wild type), Table 9): 2.1 ± 0.99 µM
EC50 (HSV-2; Human alphaherpesvirus 2, strain G): 3.1 ± 3.5 µM
EC50 (HSV-2; Human alphaherpesvirus 2, strain MS): 2.2 ± 0.8 µM

Nc1ccn([C@@H]2O[C@H](CO)C(O)C2O)c(=O)n1 (stereo partly drawn) [Ara-C, Cytosine β-D-arabinofuranoside]
cytotoxicity (MTS) (SVG cells): did not cause cytotoxicity
cytotoxicity at 20 μg/ml [1]: 21%
decrease in percentage of cells containing JCV DNA (Mad-4 JCV; Ara-C 5 μg per mL): 25%
decrease in percentage of cells containing JCV DNA (Mad-4 JCV; Ara-C 20 μg per mL): 83%
inhibition at 5 µg/mL (Mad-4 JCV; [3]): 27%
inhibition at 20 µg/mL (Mad-4 JCV; [3]): 78%

Nc1ccn(C[C@@H](CO)OCP(=O)(O)OCCCOCCCC(=O)O)c(=O)n1 [CMX064]
AUC ([2]; 0.05 mg/kg, CMX001 0.050 mg/kg): 39 ng·h/mL
Cmax ([2]; 0.05 mg/kg, CMX001 0.050 mg/kg): 4.63 ng/mL
AUC ([2]; 0.1 mg/kg, CMX001 0.100 mg/kg): 34 ng·h/mL
Cmax ([2]; 0.1 mg/kg, CMX001 0.100 mg/kg): 2.85 ng/mL
AUC ([2]; 0.2 mg/kg, CMX001 0.200 mg/kg): 39.7 ng·h/mL
Cmax ([2]; 0.2 mg/kg, CMX001 0.200 mg/kg): 4.55 ng/mL
AUC ([2]; 0.4 mg/kg, CMX001 0.400 mg/kg): 203 ng·h/mL
Cmax ([2]; 0.4 mg/kg, CMX001 0.400 mg/kg): 23 ng/mL
AUC ([2]; 0.6 mg/kg, CMX001 0.600 mg/kg): 187 ng·h/mL
Cmax ([2]; 0.6 mg/kg, CMX001 0.600 mg/kg): 24.9 ng/mL
AUC ([2]; CMX001 0.025 mg/kg): 11.8 ng·h/mL
Cmax ([2]; CMX001 0.025 mg/kg): 1.69 ng/mL

Nc1nc(O)c2ncn(COC(CO)CO)c2n1 [ganciclovir, reference compound]
EC50 (BK Virus; Virus Dilution 1:10): 89 µM
EC50 (BK Virus; Virus Dilution 1:50): > 100 µM
EC50 (BK Virus; Virus Dilution 1:100): 70.8 µM
IC50 (Adenovirus): 4.5 to 33 µM
levels of viral transcripts (HCMV (AD169)): Significant reductions in levels of most viral transcripts
fold reduction of accumulation of viral DNA (HCMV): less than 10 fold

cidofovir diphosphate [CDV-PP]
t1/2 for CDV-PP (human PBMCs; PBMCs incubated 48 hours with CMX001 or cidofovir (FIG. 40)): 156 h
t1/2 for CDV-PP (human PBMCs; incubation with CMX001 for 1 hour (FIG. 42)): 156 h
t1/2 for CDV-PP (human PBMCs; incubation with CMX001 for 48 hours (FIG. 41)): 93.6 h
